Test results published in US8962611B2, “Substituted imidazopyridines as HDM2 inhibitors” (Merck Sharp & Dohme Corp., priority 2012, dated 2015).

Biological target: HDM2 (residues 17 to 125) (Homo sapiens (Human), UniProt Q00987)
Assay: HDM2 FRET assay (inhibition of p53 peptide binding to HDM2)
Settings: read-out: FRET IC50; 0.5 nM HDM2, 3 nM FITC peptide, two hour incubation; values rounded to the nearest integer
Source text: Methods: An HDM2 FRET assay was developed to assess the compounds' inhibitory activity towards binding of p53 protein. […] Ratio of em520/em495 was used to calculate % inhibition and to obtain IC50 with 4-parameter logistic equation.
Concentration of compound was plotted against em520/Cem495 ratio signal. To generate IC50 values, the dose-response curves were fitted to a standard sigmoidal curve and IC50 values were derived by nonlinear regression analysis.

Sequence of HDM2 (residues 17 to 125) (Q00987 17-125): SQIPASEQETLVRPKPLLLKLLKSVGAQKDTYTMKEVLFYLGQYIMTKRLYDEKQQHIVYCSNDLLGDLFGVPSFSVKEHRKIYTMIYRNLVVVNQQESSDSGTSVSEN

C[C@H]1CC[C@H](Cn2c(N3CCC[C@H]3c3nccs3)nc3cc(-c4noc(=O)[nH]4)nc(-c4cncc(Cl)c4)c32)CC1 [Example 3.81, 3-{4-(5-chloropyridin-3-yl)-3-[(trans-4-methylcyclohexyl)methyl]-2-[(2S)-2-(1,3-thiazol-2-yl)pyrrolidin-1-yl]-3H-imidazo[4,5-c]pyridin-6-yl}-1,2,4-oxadiazol-5(4H)-one]
IC50: < 1 nM
